The values that follow come from patent US9062045B2, “Triazolopyridine compounds” (Novartis AG, priority 2012, dated 2015).

Structures are written as SMILES. pIC50: −log10 of the molar value. Where two headings read alike, the source gives them in different places.

Test [1] deals with human platelet PDE3 (Homo sapiens (Human), UniProt Q14432). In words: hPDE3 assay ([3H]cAMP scintillation proximity assay). The class given is biochemical. The text has this: Here, compounds of formula I were screened for their ability to inhibit human PDE3 in the assay based on Amersham Pharmacia Biotech's Phosphodiesterase (PDE) [^3H]-adenosine 3′,5′ cyclic phosphate ([^3H]cAMP) Scintillation Proximity Assay (SPA). The assay is based on the hydrolysis of [^3H]cAMP, by human platelet PDE3, to [^3H]5′-adenoside monophosphate (5′-AMP). The [^3H]5′-AMP is specifically captured by yttrium silicate SPA beads in the presence of zinc sulphate.
• Optiplate and TopSeal-S (Can berra Packard) • Human platelet PDE3 (partially purified from human platelets)—a titration curve of human platelet PDE3 activity was performed to optimise the concentration of hPDE3 required in the assay. • Yttrium silicate SPA beads and [^3H]cAMP (Amersham) • Tris-Base, magnesium chloride, ethylenediaminetetraacetic acid (di-sodium salt), bovine serum albumin BSA and cAMP (Sigma) Solutions and Buffers: • Assay buffer: 7.56 g Tris-Base was dissolved in approximately 800 mL distilled water and the pH adjusted to 7.5 with 1 M hydrochloric acid. 10.3 mL 1 M magnesium chloride and 4.25 mL 0.5 M EDTA were added. The solution was made to 1 L with distilled water and stored at 4° C. On day of use 18 mL of the above solution was removed and 2 mL 5 mg/ml BSA were added thereto. • Enzyme buffer: 10 mM Tris-HCl at pH 7.5, 1 mM EDTA • Yttrium silicate SPA beads: 1 vial was reconstituted in 28 mL distilled water and stored at 4° C. Assay
The assay was performed in a final volume of 100 μL per well of an Optiplate (Canberra Packard). A 10 μL aliquot of the test compound dissolved in DMSO/distilled water was placed in a well of an Optiplate plate, followed by the addition of 80 μL ‘Assay mix’ (5.5 μL [^3H]cAMP and 88 μL “cold” cAMP were diluted to 8.8 mL using assay buffer). The reaction was started by adding 10 μL hPDE3 (50 μL stock hPDE3 solution was diluted 50 fold to 2.5 mL using enzyme buffer). The plate was incubated at room temperature for 30 min, the reaction was then terminated by the addition of 50 μL Yttrium silicate SPA beads (pre-warmed to room temperature) to all wells. […] The plate was sealed using TopSeal-S according to the manufacturer's instructions and counted using a Packard TopCount, each well being counted for 1 min. IC50 values were determined using non-linear regression.
On the technique in general: SPA uses beads or plates that emit light when radiolabelled molecules are held near them.

Test [2] concerns GTL16 cells. In words: GTL16 cell viability assay (CellTiter Glo). The conditions noted are these: read-out: GTL-16 Proliferation IC50; GTL16 cells, 24 hours. (In general: Cellular ATP, detected with luciferase, serves as a proxy for viable cell number.)
Method: GTL16 Cell Viability Assay:
GTL16 expresses high level of c-Met receptor tyrosine kinase due to the gene amplification.
GTL16 cells were seeded in DMEM medium with 10% FBS and 1% Pene. & Strep. at 5000 cells/well/90 μL in 96 well plate and incubated overnight for attachment at 37° C. in 5% CO2 incubator. 10-fold serials dilutions of compounds were added to the cell as 10 μL/well. The final assay volume was 100 μl/well. The assay plates were incubated at 37° C. in 5% CO2 incubator for 24 hours. […] The chemiluminescent light unit was read in Envision from Perkin Elmer. All the tests were run at triplicates. The IC50 was calculated using Spotfire software.

human platelet PDE3, sequence (Q14432 whole entry): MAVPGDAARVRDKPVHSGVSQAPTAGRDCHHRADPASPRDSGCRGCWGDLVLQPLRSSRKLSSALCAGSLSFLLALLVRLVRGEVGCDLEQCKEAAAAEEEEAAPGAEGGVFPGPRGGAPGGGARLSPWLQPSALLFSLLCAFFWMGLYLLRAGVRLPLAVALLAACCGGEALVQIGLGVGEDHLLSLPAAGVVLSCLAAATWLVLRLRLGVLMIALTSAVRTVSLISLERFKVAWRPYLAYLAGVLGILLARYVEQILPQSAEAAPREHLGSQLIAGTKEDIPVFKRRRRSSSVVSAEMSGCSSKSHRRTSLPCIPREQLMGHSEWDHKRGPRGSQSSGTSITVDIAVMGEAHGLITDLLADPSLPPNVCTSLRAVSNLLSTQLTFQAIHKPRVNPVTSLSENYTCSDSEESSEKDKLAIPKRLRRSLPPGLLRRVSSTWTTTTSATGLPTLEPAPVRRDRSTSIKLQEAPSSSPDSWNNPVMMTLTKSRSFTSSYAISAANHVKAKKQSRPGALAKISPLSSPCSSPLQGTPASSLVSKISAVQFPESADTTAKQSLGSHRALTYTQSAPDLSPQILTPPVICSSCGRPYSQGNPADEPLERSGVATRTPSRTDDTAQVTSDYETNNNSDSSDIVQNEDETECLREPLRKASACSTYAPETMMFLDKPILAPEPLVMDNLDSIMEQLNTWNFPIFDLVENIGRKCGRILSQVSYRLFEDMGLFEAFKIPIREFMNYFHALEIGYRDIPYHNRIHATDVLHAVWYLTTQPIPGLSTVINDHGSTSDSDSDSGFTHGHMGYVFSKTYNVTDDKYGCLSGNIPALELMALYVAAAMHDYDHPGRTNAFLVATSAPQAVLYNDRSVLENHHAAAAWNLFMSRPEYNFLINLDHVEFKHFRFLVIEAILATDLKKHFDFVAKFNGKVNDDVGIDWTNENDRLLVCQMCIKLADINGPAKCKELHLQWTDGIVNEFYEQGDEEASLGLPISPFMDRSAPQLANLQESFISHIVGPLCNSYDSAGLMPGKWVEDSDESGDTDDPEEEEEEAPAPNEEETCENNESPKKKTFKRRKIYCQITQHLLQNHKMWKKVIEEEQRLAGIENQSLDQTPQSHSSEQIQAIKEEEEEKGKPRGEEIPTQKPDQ

Take `C/C(=N\OCCO)c1ccc2nnc(Sc3ccc4ncc(N5CCOCC5)cc4c3)n2c1` [Example 78, (E)-1-(3-((3-Morpholin-4-yl-quinolin-6-yl)thio)-[1,2,4]triazolo[4,3-a]pyridin-6-yl)ethanone O-(2-hydroxyethyl)oxime]: in test [1] (human platelet PDE3), the pIC50 was 4.55.

In the case of `CN1CCN(Cc2cnc3ccc(Sc4nnc5ccc(-c6cnn(C)c6)cn45)cc3c2)CC1` [Example 6, 6-(6-(1-Methyl-1H-pyrazol-4-yl)-[1,2,4]triazolo[4,3-a]pyridin-3-ylthio)-3-((4-methylpiperazin-1-yl)methyl)quinoline], the pIC50 was 7.57 in test [2] and 4.52 in test [1] (human platelet PDE3).

As to `OCCn1cc(-c2cnc3nnn(Cc4ccc5ncccc5c4)c3n2)cn1` [Comparator No. 3 (PF-04217903), 2-[4-(3-Quinolin-6-ylmethyl-3H-[1,2,3]triazolo[4,5-b]pyrazin-5-yl)-pyrazol-1-yl]-ethanol, reference compound], in test [2], the pIC50 is more than 8.00.

As for `Cn1cc(-c2ccc3nnc(Sc4ccc5ncc(NCCO)cc5c4)n3c2)cn1` [Example 53, 2-(6-(6-(1-methyl-1H-pyrazol-4-yl)-[1,2,4]triazolo[4,3-a]pyridin-3-ylthio)quinolin-3-ylamino)ethanol], the pIC50 in test [2] is 7.77; in test [1] (human platelet PDE3), 4.85.

Take `Cn1cc(-c2ccc3nnc(Sc4ccc5ncc(N6CCCC(N)C6)cc5c4)n3c2)cn1` (stereo not drawn) [Example 10, 1-(6-(6-(1-Methyl-1H-pyrazol-4-yl)-[1,2,4]triazolo[4,3-a]pyridin-3-ylthio)quinolin-3-yl)piperidin-3-amine]: the pIC50 in test [2] was 7.68.

Consider `C/C(=N\OCCO)c1ccc2nnc(Sc3ccc4ncc(CN5CCOCC5)cc4c3)n2c1` [Example 80, (E)-1-(3-((3-(Morpholin-4-yl-methyl)quinolin-6-yl)thio)-[1,2,4]triazolo[4,3-a]pyridin-6-yl)ethanone O-(2-hydroxyethyl)oxime], for which the pIC50 in test [1] (human platelet PDE3) is 4.52.

For `Cn1cc(-c2ccc3nnc(Sc4ccc5ncc(N6CCC(N)CC6)cc5c4)n3c2)cn1` [Example 21, 1-(6-(6-(1-Methyl-1H-pyrazol-4-yl)-[1,2,4]triazolo[4,3-a]pyridin-3-ylthio)quinolin-3-yl)piperidin-4-amine], the pIC50 in test [2] was 7.44.

As to `Cn1cc(-c2ccc3nnc(Sc4ccc5ncc(NC6CCOCC6)cc5c4)n3c2)cn1` [Example 68, {6-[6-(1-Methyl-1H-pyrazol-4-yl)-[1,2,4]triazolo[4,3-a]pyridin-3-ylsulfanyl]-quinolin-3-yl}-(tetrahydro-pyran-4-yl)-amine], the pIC50 in test [2] was 8.52; in test [1] (human platelet PDE3), 5.00.

For `Cn1cc(-c2ccc3nnc(Sc4ccc5ncc(NC6CC(C)(C)NC(C)(C)C6)cc5c4)n3c2)cn1` [Example 62, 6-(6-(1-Methyl-1H-pyrazol-4-yl)-[1,2,4]triazolo[4,3-a]pyridin-3-ylthio)-N-(2,2,6,6-tetramethylpiperidin-4-yl)quinolin-3-amine], the pIC50 is 7.14 in test [2] and 4.74 in test [1] (human platelet PDE3).

In the case of `Cn1cc(-c2ccc3nnc(Sc4ccc5ncc(N6CCC(F)(F)CC6)cc5c4)n3c2)cn1` [Example 61, 3-(4,4-Difluoro-piperidin-1-yl)-6-[6-(1-methyl-1H-pyrazol-4-yl)-[1,2,4]triazolo[4,3-a]pyridin-3-ylsulfanyl]-quinoline], the results for the pIC50 in test [2] and in test [1] (human platelet PDE3) were 8.70 and 4.92, respectively.

Regarding `Cn1cc(-c2cc(F)c3nnc(Sc4ccc5ncc(N6CCOCC6)cc5c4)n3c2)cn1` [Example 70, 4-(6-(8-Fluoro-6-(1-methyl-1H-pyrazol-4-yl)-[1,2,4]triazolo[4,3-a]pyridin-3-ylthio)quinolin-3-yl)morpholine], the pIC50 in test [2] was 9.00.

Turning to `Cn1cc(-c2ccc3nnc(Sc4ccc5ncc(NC6CCOC6)cc5c4)n3c2)cn1` (stereo not drawn) [Example 51], the values for the pIC50 in test [2] and in test [1] (human platelet PDE3) were 8.05 and 5.15, respectively.

For the molecule `C/C(=N\O)c1ccc2nnc(Sc3ccc4ncc(N5CCOCC5)cc4c3)n2c1` [Example 77, (E)-1-(3-((3-Morpholin-4-yl-quinolin-6-yl)thio)-[1,2,4]triazolo[4,3-a]pyridin-6-yl)ethanone oxime], the pIC50 in test [2] is 8.10; in test [1] (human platelet PDE3), 4.92.

Take `CN1CCC(Nc2cnc3ccc(Sc4nnc5c(F)cc(-c6cnn(C)c6)cn45)cc3c2)CC1` [Example 8, {6-[8-Fluoro-6-(1-methyl-1H-pyrazol-4-yl)-[1,2,4]triazolo[4,3-a]pyridin-3-ylsulfanyl]-quinolin-3-yl}-(1-methyl-piperidin-4-yl)-amine]: the pIC50 in test [1] (human platelet PDE3) was 4.52.

Consider `CN(C)[C@H]1CCN(c2cnc3ccc(Sc4nnc5c(F)cc(-c6cnn(C)c6)cn45)cc3c2)C1` [Example 13, (S)-1-(6-(8-Fluoro-6-(1-methyl-1H-pyrazol-4-yl)-[1,2,4]triazolo[4,3-a]pyridin-3-ylthio)quinolin-3-yl)-N,N-dimethylpyrrolidin-3-amine], for which the pIC50 in test [2] was 9.40; in test [1] (human platelet PDE3) it was 4.62.

Turning to `COC1CCN(c2cnc3ccc(Sc4nnc5ccc(-c6cnn(C)c6)cn45)cc3c2)CC1` [Example 43, 3-(4-Methoxypiperidin-1-yl)-6-(6-(1-methyl-1H-pyrazol-4-yl)-[1,2,4]triazolo[4,3-a]pyridin-3-ylthio)quinoline], in test [2], the pIC50 was 9.52.

Regarding `Cn1cc(-c2ccc3nnc(Sc4ccc5ncc(N6CCC7(CCOCC7)C6)cc5c4)n3c2)cn1` [Example 47, 2-(6-((6-(1-Methyl-1H-pyrazol-4-yl)-[1,2,4]triazolo[4,3-a]pyridin-3-yl)thio)quinolin-3-yl)-8-oxa-2-azaspiro[4.5]decane], the pIC50 in test [2] was 8.52; in test [1] (human platelet PDE3) it was 4.92.

Molecule `C/C(=N\O)c1ccc2nnc(Sc3ccc4ncc(N5CC[C@H](N(C)C)C5)cc4c3)n2c1` [Example 82, (S,E)-1-(3-(3-(3-(Dimethylamino)pyrrolidin-1-yl)quinolin-6-ylthio)-[1,2,4]triazolo[4,3-a]pyridin-6-yl)ethanone oxime] gave a pIC50 in test [1] of 4.96.

Consider `C/C(=N\OCCO)c1ccc2nnc(Sc3ccc4ncc(N5CCC(O)CC5)cc4c3)n2c1` [Example 76, (E)-1-(3-((3-(4-Hydroxypiperidin-1-yl)quinolin-6-yl)thio)-[1,2,4]triazolo[4,3-a]pyridin-6-yl)-ethanone O-(2-hydroxyethyl)oxime], for which the results for the pIC50 in test [2] and in test [1] (human platelet PDE3) were 7.27 and 4.85, respectively.

Take `Cn1cc(-c2ccc3nnc(Sc4ccc5ncc(N6CCNCC6)cc5c4)n3c2)cn1` [Example 27, 6-(6-(1-Methyl-1H-pyrazol-4-yl)-[1,2,4]triazolo[4,3-a]pyridin-3-ylthio)-3-(piperazin-1-yl)quinoline]: the pIC50 in test [2] was 8.40; in test [1] (human platelet PDE3) it was 4.77.

Turning to `C/C(=N\OCCO)c1cc(F)c2nnc(Sc3ccc4ncc(N5CC[C@H](N(C)C)C5)cc4c3)n2c1` [Example 85, (S,E)-1-{3-[3-(3-dimethylamino-pyrrolidin-1-yl)-quinolin-6-ylthio]-8-fluoro-[1,2,4]triazolo[4,3-a]pyridin-6-yl}ethanone O-(2-hydroxy-ethyl)-oxime], the pIC50 was 7.64 in test [2] and 4.52 in test [1] (human platelet PDE3).

On to `C/C(=N\OCCO)c1ccc2nnc(Sc3ccc4ncc(NC5CCOCC5)cc4c3)n2c1` [Example 83, (E)-1-(3-(3-(Tetrahydro-2H-pyran-4-ylamino)quinolin-6-ylthio)-[1,2,4]triazolo[4,3-a]pyridin-6-yl)ethanone O-2-hydroxyethyl oxime], for which the pIC50 in test [2] was 9.00; in test [1] (human platelet PDE3), 4.70.

As for `Cn1cc(-c2cc(F)c3nnc(Sc4ccc5ncc(NCCO)cc5c4)n3c2)cn1` [Example 54, 2-(6-(8-Fluoro-6-(1-methyl-1H-pyrazol-4-yl)-[1,2,4]triazolo[4,3-a]pyridin-3-ylthio)quinolin-3-ylamino)ethanol], the pIC50 in test [2] is 7.85.

With `CN1CCC(Nc2cnc3ccc(Sc4nnc5ccc(-c6cnn(C)c6)cn45)cc3c2)CC1` [Example 15, (1-Methyl-piperidin-4-yl)-{6-[6-(1-methyl-1H-pyrazol-4-yl)-[1,2,4]triazolo[4,3-a]pyridin-3-ylsulfanyl]-quinolin-3-yl}-amine], the pIC50 is 8.70 in test [2] and 4.52 in test [1] (human platelet PDE3).

With `CN1CCN(c2cnc3ccc(Sc4nnc5ccc(-c6cnn(C)c6)cn45)cc3c2)CC1` [Example 74, 3-(4-Methyl-piperazin-1-yl)-6-[6-(1-methyl-1H-pyrazol-4-yl)-[1,2,4]triazolo[4,3-a]pyridin-3-ylsulfanyl]-quinoline], the pIC50 in test [2] was 8.70.
